Test results as given in ChEMBL document CHEMBL5543142, “Discovery of YFJ-36: Design, Synthesis, and Antibacterial Activities of Catechol-Conjugated β-Lactams against Gram-Negative Bacteria” (J Med Chem, 2024).

Columns and labels:
Type in all cases: functional
Conditions in all cases: time 18-20 hrs
Klebsiella pneumoniae [1] = assay: Antibacterial activity against KPC-2 producing multidrug-resistant Klebsiella pneumoniae clinical isolate 15-5 assessed as inhibition of bacterial growth incubated for 18 to 20 hrs by two fold serial dilution assay
Acinetobacter baumannii [2] = assay: Antibacterial activity against OXA-23 producing multidrug-resistant Acinetobacter baumannii clinical isolate 15-5 assessed as inhibition of bacterial growth incubated for 18 to 20 hrs by two fold serial dilution assay
Klebsiella pneumoniae [3] = assay: Antibacterial activity against KPC-2 producing multidrug-resistant Klebsiella pneumoniae clinical isolate 15-2 assessed as inhibition of bacterial growth incubated for 18 to 20 hrs by two fold serial dilution assay
Acinetobacter baumannii [4] = assay: Antibacterial activity against OXA-23 producing multidrug-resistant Acinetobacter baumannii clinical isolate 15-2 assessed as inhibition of bacterial growth incubated for 18 to 20 hrs by two fold serial dilution assay
Pseudomonas aeruginosa [5] = assay: Antibacterial activity against IMP-4 producing multidrug-resistant Pseudomonas aeruginosa clinical isolate 19-17 assessed as inhibition of bacterial growth incubated for 18 to 20 hrs by two fold serial dilution assay
Escherichia coli [6] = assay: Antibacterial activity against ESBL-producing multidrug-resistant Escherichia coli clinical isolate 14-2 assessed as inhibition of bacterial growth incubated for 18 to 20 hrs by two fold serial dilution assay
Acinetobacter baumannii [7] = assay: Antibacterial activity against OXA-23 producing multidrug-resistant Acinetobacter baumannii clinical isolate 15-4 assessed as inhibition of bacterial growth incubated for 18 to 20 hrs by two fold serial dilution assay
Escherichia coli [8] = assay: Antibacterial activity against ESBL-producing multidrug-resistant Escherichia coli clinical isolate 14-4 assessed as inhibition of bacterial growth incubated for 18 to 20 hrs by two fold serial dilution assay
Escherichia coli [9] = assay: Antibacterial activity against Escherichia coli ATCC35218 assessed as inhibition of bacterial growth incubated for 18 to 20 hrs by two fold serial dilution assay
Pseudomonas aeruginosa [10] = assay: Antibacterial activity against IMP-4 producing multidrug-resistant Pseudomonas aeruginosa clinical isolate 17-13 assessed as inhibition of bacterial growth incubated for 18 to 20 hrs by two fold serial dilution assay
Escherichia coli [11] = assay: Antibacterial activity against ESBL-producing multidrug-resistant Escherichia coli clinical isolate 14-1 assessed as inhibition of bacterial growth incubated for 18 to 20 hrs by two fold serial dilution assay
Klebsiella pneumoniae [12] = assay: Antibacterial activity against KPC-2 producing multidrug-resistant Klebsiella pneumoniae clinical isolate 15-1 assessed as inhibition of bacterial growth incubated for 18 to 20 hrs by two fold serial dilution assay
Acinetobacter baumannii [13] = assay: Antibacterial activity against OXA-23 producing multidrug-resistant Acinetobacter baumannii clinical isolate 15-3 assessed as inhibition of bacterial growth incubated for 18 to 20 hrs by two fold serial dilution assay
Klebsiella pneumoniae [14] = assay: Antibacterial activity against KPC-2 producing multidrug-resistant Klebsiella pneumoniae clinical isolate 15-3 assessed as inhibition of bacterial growth incubated for 18 to 20 hrs by two fold serial dilution assay
Acinetobacter baumannii [15] = assay: Antibacterial activity against OXA-23 producing multidrug-resistant Acinetobacter baumannii clinical isolate 15-1 assessed as inhibition of bacterial growth incubated for 18 to 20 hrs by two fold serial dilution assay
Pseudomonas aeruginosa [16] = assay: Antibacterial activity against IMP-4 producing multidrug-resistant Pseudomonas aeruginosa clinical isolate 17-1 assessed as inhibition of bacterial growth incubated for 18 to 20 hrs by two fold serial dilution assay
Pseudomonas aeruginosa [17] = assay: Antibacterial activity against IMP-4 producing multidrug-resistant Pseudomonas aeruginosa clinical isolate 15-4 assessed as inhibition of bacterial growth incubated for 18 to 20 hrs by two fold serial dilution assay
Pseudomonas aeruginosa [18] = assay: Antibacterial activity against IMP-4 producing multidrug-resistant Pseudomonas aeruginosa clinical isolate 15-1 assessed as inhibition of bacterial growth incubated for 18 to 20 hrs by two fold serial dilution assay
Pseudomonas aeruginosa [19] = assay: Antibacterial activity against Pseudomonas aeruginosa ATCC 27853 assessed as inhibition of bacterial growth incubated for 18 to 20 hrs by two fold serial dilution assay
Pseudomonas aeruginosa [20] = assay: Antibacterial activity against IMP-4 producing multidrug-resistant Pseudomonas aeruginosa clinical isolate 15-5 assessed as inhibition of bacterial growth incubated for 18 to 20 hrs by two fold serial dilution assay
Pseudomonas aeruginosa [21] = assay: Antibacterial activity against IMP-4 producing multidrug-resistant Pseudomonas aeruginosa clinical isolate 19-1 assessed as inhibition of bacterial growth incubated for 18 to 20 hrs by two fold serial dilution assay
Acinetobacter baumannii [22] = assay: Antibacterial activity against OXA-23 producing multidrug-resistant Acinetobacter baumannii clinical isolate 17-2 assessed as inhibition of bacterial growth incubated for 18 to 20 hrs by two fold serial dilution assay
Pseudomonas aeruginosa [23] = assay: Antibacterial activity against IMP-4 producing multidrug-resistant Pseudomonas aeruginosa clinical isolate 19-5 assessed as inhibition of bacterial growth incubated for 18 to 20 hrs by two fold serial dilution assay

| Structure (SMILES) | MIC (Klebsiella pneumoniae [1]) [µg/mL] | MIC (Acinetobacter baumannii [2]) [µg/mL] | MIC (Klebsiella pneumoniae [3]) [µg/mL] | MIC (Acinetobacter baumannii [4]) [µg/mL] | MIC (Pseudomonas aeruginosa [5]) [µg/mL] | MIC (Escherichia coli [6]) [µg/mL] | MIC (Acinetobacter baumannii [7]) [µg/mL] | MIC (Escherichia coli [8]) [µg/mL] | MIC (Escherichia coli [9]) [µg/mL] | MIC (Pseudomonas aeruginosa [10]) [µg/mL] | MIC (Escherichia coli [11]) [µg/mL] | MIC (Klebsiella pneumoniae [12]) [µg/mL] | MIC (Acinetobacter baumannii [13]) [µg/mL] | MIC (Klebsiella pneumoniae [14]) [µg/mL] | MIC (Acinetobacter baumannii [15]) [µg/mL] | MIC (Pseudomonas aeruginosa [16]) [µg/mL] | MIC (Pseudomonas aeruginosa [17]) [µg/mL] | MIC (Pseudomonas aeruginosa [18]) [µg/mL] | MIC (Pseudomonas aeruginosa [19]) [µg/mL] | MIC (Pseudomonas aeruginosa [20]) [µg/mL] | also measured |
| --- | --- | --- | --- | --- | --- | --- | --- | --- | --- | --- | --- | --- | --- | --- | --- | --- | --- | --- | --- | --- | --- |
| Nc1nc(/C(=N/OC(C(=O)O)C2CCSCC2)C(=O)N[C@@H]2C(=O)N3C(C(=O)O)=C(CSCCNC(=O)c4ccc(O)c(O)c4Cl)CS[C@H]23)cs1.O=C(O)C(F)(F)F (stereo partly specified) | 8 | 4 | 4 | 8 | 0.5 | 0.5 | 8 | 0.25 | 0.25 | 1 | 0.125 | 2 | 4 | 4 | 4 |  |  |  |  |  |  |
| C[C@@](O/N=C(\C(=O)N[C@@H]1C(=O)N2C(C(=O)O)=C(CSCCNC(=O)c3ccc(O)c(O)c3Cl)CS[C@H]12)c1csc(N)n1)(C(=O)O)C(F)(F)F.O=C(O)C(F)(F)F | 1 | 16 | 1 | 32 | 0.5 | 0.5 | 16 | 0.5 | 0.06 | 0.125 | 0.125 | 1 | 32 | 2 | 16 | 4 |  |  |  |  |  |
| CC(C)(O/N=C(\C(=O)N[C@@H]1C(=O)N2C(C(=O)O)=C(CSCCCNC(=O)c3ccc(O)c(O)c3Cl)CS[C@H]12)c1csc(N)n1)C(=O)O.O=C(O)C(F)(F)F | 4 | 64 | 4 | 64 |  | 2 | 64 | 16 |  |  | 0.125 | 16 | 32 | 8 | 32 |  | 2 | 1 | 4 | 4 |  |
| Nc1nc(/C(=N/OC(C(=O)O)C2CCC2)C(=O)N[C@@H]2C(=O)N3C(C(=O)O)=C(CSCCNC(=O)c4ccc(O)c(O)c4Cl)CS[C@H]23)cs1.O=C(O)C(F)(F)F (stereo partly specified) | 4 | 64 | 4 | 32 | 0.5 | 4 | 32 | 0.25 | 0.125 | 1 | 0.5 | 8 | 16 | 16 | 32 | 8 |  |  |  |  |  |
| Nc1nc(/C(=N/OC(C(=O)O)C2CCS(=O)(=O)CC2)C(=O)N[C@@H]2C(=O)N3C(C(=O)O)=C(CSCCNC(=O)c4ccc(O)c(O)c4Cl)CS[C@H]23)cs1.O=C(O)C(F)(F)F (stereo partly specified) | 0.5 | 4 | 2 | 2 | 2 | 1 | 4 | 0.5 |  | 1 | 1 | 2 | 2 | 2 | 2 |  |  |  |  |  |  |
| CC(C)(O/N=C(\C(=O)N[C@@H]1C(=O)N2C(C(=O)O)=C(CSCCOCCNC(=O)c3ccc(O)c(O)c3Cl)CS[C@H]12)c1csc(N)n1)C(=O)O.O=C(O)C(F)(F)F | 4 | 32 | 4 | 32 |  | 2 | 64 | 32 |  |  | 0.25 | 8 | 32 | 8 | 32 |  | 1 | 1 | 4 | 2 |  |
| CC(C)(O/N=C(\C(=O)N[C@@H]1C(=O)N2C(C(=O)O)=C(CS[C@@H]3C[C@H]4CC[C@@H](C3)N4C(=O)c3ccc(O)c(O)c3Cl)CS[C@H]12)c1csc(N)n1)C(=O)O.O=C(O)C(F)(F)F | 1 | > 64 | 1 | 64 |  | 16 | > 64 | 16 |  |  | 0.25 | 2 | 64 | 64 | 64 |  | 16 | 16 | 2 | 16 |  |
| Nc1nc(/C(=N/OC(C(=O)O)C2CCOCC2)C(=O)N[C@@H]2C(=O)N3C(C(=O)O)=C(CSCCNC(=O)c4ccc(O)c(O)c4Cl)CS[C@H]23)cs1.O=C(O)C(F)(F)F (stereo partly specified) | 16 | 16 | 16 | 32 | 8 | 16 | 32 | 4 | 4 | 1 | 8 | 16 | 16 | 8 | 32 |  |  |  |  |  |  |
| CC(C)(O/N=C(\C(=O)N[C@@H]1C(=O)N2C(C(=O)O)=C(CSCCNC(=O)c3ccc(O)c(O)c3Cl)CS[C@H]12)c1csc(N)n1)C(=O)O.O=C(O)C(F)(F)F | 2 | 64 | 4 | 32 |  | 2 | 32 | 1 |  |  | 0.25 | 8 | 32 | 8 | 32 |  | 4 | 2 | 0.5 | 4 |  |
| Nc1nc(/C(=N/OC(C(=O)O)C2CC2)C(=O)N[C@@H]2C(=O)N3C(C(=O)O)=C(CSCCNC(=O)c4ccc(O)c(O)c4Cl)CS[C@H]23)cs1.O=C(O)C(F)(F)F (stereo partly specified) | 4 | 64 | 4 | 64 | 1 | 4 | 64 | 0.5 | 0.25 | 1 | 0.5 | 16 | 64 | 64 | 32 | 1 |  |  |  |  |  |
| CC(C)(O/N=C(\C(=O)N[C@@H]1C(=O)N2C(C(=O)O)=C(CS[C@H]3CC[C@@H](NC(=O)c4ccc(O)c(O)c4Cl)CC3)CS[C@H]12)c1csc(N)n1)C(=O)O.O=C(O)C(F)(F)F | 8 | 32 | 4 | 32 |  | 4 | 32 | 1 |  |  | 0.125 | 4 | 32 | 4 | 32 |  | 1 | 1 | 8 | 2 |  |
| Nc1nc(/C(=N/OC(C(=O)O)C2CCCC2)C(=O)N[C@@H]2C(=O)N3C(C(=O)O)=C(CSCCNC(=O)c4ccc(O)c(O)c4Cl)CS[C@H]23)cs1.O=C(O)C(F)(F)F (stereo partly specified) | 2 | 32 | 2 | 16 | 1 | 2 | 16 | 0.25 | 0.25 | 8 | 0.25 | 2 | 16 | 4 | 32 | 1 |  |  |  |  |  |
| Cc1sc(N)nc1/C(=N/OC(C(=O)O)C1CCC(F)(F)CC1)C(=O)N[C@@H]1C(=O)N2C(C(=O)O)=C(CSCCNC(=O)c3ccc(O)c(O)c3Cl)CS[C@H]12.O=C(O)C(F)(F)F (stereo partly specified) | 2 | 2 | 4 | 2 | 0.25 | 1 | 4 | 0.5 | 0.25 | 0.25 | 0.5 | 2 | 4 | 8 | 4 |  |  |  |  |  | MIC (Pseudomonas aeruginosa [21]): 8 µg/mL; MIC (Acinetobacter baumannii [22]): 0.125 µg/mL; MIC (Pseudomonas aeruginosa [23]): 1 µg/mL |
